Test results reported in US5135952A, “Antiinflammatory and/or antiallergic methods” (Senju Pharmaceutical Co., ltd., priority 1989, dated 1992).
Each block holds one compound with its values, some of them ahead of it.

Key:
[1] = system: carrageenan-induced conjunctival edema; experiment: Effect on Rat Carrageenan-Induced Conjunctival Edema; type: in vivo, rat (male Wistar); conditions: for effect on rat carrageenan-induced conjunctival edema, in words: DCE-GS 3, 10, 30 mg/kg i.v., ester derivatives and GSH 30 mg/kg; for Edema weight / % Inhibition (edema weight): 3 hours, n = 10; for Edema weight: mean ± S.E.
Method: Effect on Rat Carrageenan-Induced Conjunctival Edema Male Wistar rats weighing about 130 g were used in the experiment. S-(α,β-Dicarboxyethyl)glutathione (hereinafter referred to as DCE-GS) dissolved in physiological saline and adjusted with sodium hydrochloride to pH 7 was administered in doses of 3, 10 and 30 mg/kg to rats through the caudal vein (control group: physiological saline). […] One minute later, 50 μl of 1% carrageenan solution was injected beneath the palpebral conjunctiva of the rat under pentobarbital anesthesia. After three hours, each rat was sacrificed and conjunctival edema was isolated and weighted.

hygroscopicity = type: physicochemical
[2] = system: rat peritoneal mast cells; experiment: Inhibitory Effect on the Release of Histamine from Rat Peritoneal Exudate Cells (Compound 48/80-induced); type: cell-based, rat (male SD); conditions: for % Release (histamine): mean ± S.E., boiled control specimen = 100%, control 75.0 ± 6.7
Method: Inhibitory Effect on the Release of Histamine from Rat Peritoneal Exudate Cells
(1) Preparation of rat peritoneal cell suspension
Male SD rats weighing 250 to 280 g were used. The rat peritoneal cells were collected and isolated according to the method of Sullivan et al. First, the rat was bled to death by decapitation and immediately the hair of the abdomen was shaved, the skin was incised a few centimeters, and 10 ml of mast cell medium (MCM) was injected into the peritoneal cavity using a 18-G needle while picking up the muscle with tweezers, followed by 90-sec gentle massage. Then, the abdomen was opened to collect as much ascites as possible using a Terumo syringe. The ascites contaminated with blood was not used in the experiment. The ascites was layered in a polycarbonate tube containing 2 ml of 40% Ficoll 400 (Pharmacia) dissolved in MCM, allowed to stand at room temperature for 30 minutes, and centrifuged at 700 rpm at 4° C. for 10 minutes. Then, the sediment in the upper layer of Ficoll 400 was pipetted and washed three times with about 7 ml of MCM. The cells were counted with a Burker-Turk cytometer and using MCM as a diluent, a cell suspension of about 10^5 cells/ml (rat peritoneal cell suspension) was prepared. Mast cells were identified by staining intracellular granules with 0.05% toluidine blue.
(2) Release of histamine from mast cells
After 0.8 ml of rat peritoneal cell suspension was preincubated at 37° C. for 10 minutes, 0.1 ml of the test drug was added. The system was incubated for 5 minutes, at the end of which time 0.1 ml of 10 μg/ml of Compound 48/80 (Sigma) in physiological saline was added. After 10 minutes' incubation, the reaction mixture was cooled in ice-water for 10 minutes to terminate the reaction and centrifuged at 700 rpm at 4° C. for 5 minutes. Then, histamine in the supernatant was determined by HPLC in accordance with the method of Shore et al. as partially modified.

[3] = system: passive anaphylaxis of the back of the rat; experiment: Effect on Passive Anaphylaxis of the Back of the Rat; type: in vivo, rat (male Wistar); conditions: for Area, Inhibition (%) / Dye, Inhibition (%) / Area (of stain) / Dye: 30 minutes; for Area (of stain) / Dye: mean ± S.E., n = 4 or 5; for Area (of stain): saline 926 ± 65; for Dye: saline 767 ± 87
Method: Effect on Passive Anaphylaxis of the Back of the Rat
Male Wistar rats weighing about 130 g were used in the experiment. The back hair of each rat was clipped with clippers. The rat antiserum was injected intradermally at the back of the rat. After three days, DCE-GS was administered in doses of 3, 10 and 30 mg/kg (physiological saline to controls) into the caudal vein and after one minute 1 ml of a 50:50 (v/v) mixture of the antigen 1% ovalbumin and 2% Evans blue was administered intravenously to induce passive anaphylaxis. After 30 minutes, the rat was sacrificed and the stained area was determined. The pertinent area was removed and the dye was extracted with 20 ml of formaldehyde for determination.

male ddY mice = experiment: Intravenous Acute Toxicity Study; type: in vivo, mouse (male ddY); conditions: i.v.; 100, 200, 400, 800 and 1,600 mg/kg; seventy-two-hour observation; groups of 5
Method: Intravenous Acute Toxicity Study
The intravenous acute toxicity study of DCE-GS was conducted in male ddY mice, weighing about 20 g, in groups of 5. The doses were 100, 200, 400, 800 and 1,600 mg/kg (common ratio 2). All the injections were adjusted with 1N sodium hydrochloride to pH 7.

[4] = previously discovered by the inventors (Japanese Kokai 63-8337/1988; Japanese Application 1-79956/1989); cited from earlier work
platelet = conditions: previously discovered by the inventors (Japanese Kokai 63-8337/1988; Japanese Application 1-79956/1989); cited from earlier work
[5] = Table 2, 30 mg/kg, *p < 0.01, **p < 0.001 vs saline (73.7 ± 2.9)

Compound: N[C@@H](CCC(=O)N[C@@H](CS)C(=O)NCC(=O)O)C(=O)O [GSH, glutathione, reference compound]
- effect on rat carrageenan-induced conjunctival edema, in words [1]: no antiinflammatory effect
- Edema weight [1, 5]: 74.8 ± 3.5 mg
- % Inhibition (edema weight) ([1]; Table 2, 30 mg/kg): -1.5%

Compound: S-(monoethyl-α,β-dicarboxyethyl)glutathione sodium [DCE-GS monoethyl ester sodium]
- Edema weight [1, 5]: 58.5 ± 2.0 mg
- % Inhibition (edema weight) ([1]; Table 2, 30 mg/kg): 20.6%

- hygroscopicity (hygroscopicity): hygroscopic
Compound: CCCCOC(=O)CC(SC[C@H](NC(=O)CC[C@H](N)C(=O)O)C(=O)NCC(=O)O)C(=O)OCCCC (stereo partly drawn) [DCE-GS di-n-butyl ester sodium, S-(di-n-butyl-α,β-dicarboxyethyl)glutathione sodium]
- Edema weight [1, 5]: 60.9 ± 2.8 mg
- % Inhibition (edema weight) ([1]; Table 2, 30 mg/kg): 17.4%

Compound: N[C@@H](CCC(=O)N[C@@H](CSC(CC(=O)O)C(=O)O)C(=O)NCC(=O)O)C(=O)O (stereo partly drawn) [DCE-GS, S-(α,β-Dicarboxyethyl)glutathione]
- effect on rat carrageenan-induced conjunctival edema, in words [1]: inhibited rat carrageenan-induced conjunctival edema dose-dependently
- Edema weight ([1]; Table 1, 3 mg/kg i.v. (caudal vein), *p < 0.001 vs saline (71.7 ± 3.6)): 50.5 ± 1.9 mg
- % Inhibition (edema weight) ([1]; Table 1, 3 mg/kg i.v.): 29.6%
- Edema weight ([1]; Table 1, 10 mg/kg i.v., *p < 0.001 vs saline (71.7 ± 3.6)): 44.9 ± 2.4 mg
- % Inhibition (edema weight) ([1]; Table 1, 10 mg/kg i.v.): 37.4%
- Edema weight ([1]; Table 1, 30 mg/kg i.v., *p < 0.001 vs saline (71.7 ± 3.6)): 44.9 ± 2.2 mg
- % Inhibition (edema weight) ([1]; Table 1, 30 mg/kg i.v.): 37.4%
- % Release (histamine) ([2]; 10^-3 M, n = 3): 2.9 ± 3.4%
- % Release (histamine) ([2]; 10^-4 M, n = 3): 59.4 ± 6.2%
- % Release (histamine) ([2]; 10^-5 M, n = 3): 73.4 ± 6.5%
- inhibition of histamine release, in words ([2]; 10^-5 to 10^-3 M): inhibited histamine release concentration-dependently
- inhibition at 1000 µM ([2]; Rattus norvegicus, Mast cell, 10^-3 M, n = 3): 96.1%
- inhibition at 100 µM ([2]; Rattus norvegicus, Mast cell, 10^-4 M, n = 3): 20.8%
- inhibition at 10 µM ([2]; Rattus norvegicus, Mast cell, 10^-5 M, n = 3): 2.1%
- Area, Inhibition (%) ([3]; 3 mg/kg i.v.): 6.5%
- Dye, Inhibition (%) ([3]; 3 mg/kg i.v.): 17.5%
- Area (of stain) ([3]; 3 mg/kg i.v., *p < 0.05): 866 ± 195 mm^2
- Dye ([3]; 3 mg/kg i.v.): 633 ± 111 μg/site
- Area, Inhibition (%) ([3]; 10 mg/kg i.v.): 30.5%
- Dye, Inhibition (%) ([3]; 10 mg/kg i.v.): 38.5%
- Area (of stain) ([3]; 10 mg/kg i.v., **p < 0.01): 644 ± 88 mm^2
- Dye ([3]; 10 mg/kg i.v.): 472 ± 98 μg/site
- Area, Inhibition (%) ([3]; 30 mg/kg i.v.): 47.2%
- Dye, Inhibition (%) ([3]; 30 mg/kg i.v.): 43.4%
- Area (of stain) ([3]; 30 mg/kg i.v., ***p < 0.001): 489 ± 47 mm^2
- Dye ([3]; 30 mg/kg i.v., *p < 0.05): 434 ± 77 μg/site
- inhibition of area of stain and amount of dye, in words ([3]; 3, 10 and 30 mg/kg i.v.): inhibited both the area of stain and the amount of dye on the rat back dose-dependently
- death / abnormal behavior (male ddY mice): neither death nor abnormal behavior
- antihemogglutination activity [4]: antihemogglutination activity
- platelet aggregation inhibitory activity (platelet): platelet aggregation inhibitory activity

Compound: CCOC(=O)CC(SC[C@H](NC(=O)CC[C@H](N)C(=O)O)C(=O)NCC(=O)O)C(=O)OCC (stereo partly drawn) [DCE-GS diethyl ester sodium, S-(diethyl-α,β-dicarboxyethyl)glutathione sodium]
- Edema weight [1, 5]: 49.7 ± 2.6 mg
- % Inhibition (edema weight) ([1]; Table 2, 30 mg/kg): 32.6%
